Assay [1] addresses Jarid1B (Homo sapiens (Human), UniProt Q9UGL1). The assay is described as follows: In vitro enzyme inhibition assay for Jarid1B activity (TR-FRET). Format: biochemical. As for the experimental part: The ability of test compounds to inhibit the activity of Jarid1B was determined in 384-well plate format under the following reaction conditions: 0.8 nM Jarid1B, 300 nM H3K4me3-biotin labeled peptide (Anaspec cat #64357), 2 μM alpha-ketoglutaric acid in assay buffer of 50 mM HEPES, pH7.3, 0.005% Brij35, 0.5 mM TCEP, 0.2 mg/ml BSA, 50 μM sodium L-ascorbate, and 2 μM ammonium iron(II) sulfate. Reaction product was determined quantitatively by TR-FRET after the addition of detection reagent Phycolink Streptavidin-allophycocyanin (Prozyme) and Europium-anti-H3K4me or -H3K4me2 antibody (PerkinElmer) in the presence of 5 mM EDTA in LANCE detection buffer (PerkinElmer) at a final concentration of 25 nM and 1 nM, respectively.
(§1) The assay reaction was initiated by the following: 2 μl of the mixture of 900 nM H3K4me3-biotin labeled peptide and 6 μM alpha-ketoglutaric acid with 2 μl of 11-point serial diluted inhibitor in 3% DMSO was added to each well of the plate, followed by the addition of 2 μl of 2.4 nM Jarid1B to initiate the reaction. The reaction mixture was incubated at RT for 30 min, and terminated by the addition of 6 μl of 5 mM EDTA in LANCE detection buffer containing 50 nM Phycolink Streptavidin-allophycocyanin and 2 nM Europium-anti-H3K4me/H3K4me2 antibody. Plates were read by EnVisionMultilabel Reader in TR-FRET mode (excitation at 320 nm, emission at 615 nm and 665 nm) after 1 hr incubation at RT. A ratio was calculated (665/615) for each well and fitted to determine inhibition constant (IC50).

For assay [2], the target named is JMJD2C (Homo sapiens (Human), UniProt Q9H3R0). The assay is described as follows: In vitro enzyme inhibition assay for JMJD2C activity (TR-FRET). Format: biochemical. As for the experimental part:
This assay determines the ability of a test compound to inhibit JMJD2C demethylase activity. Baculovirus expressed JMJD2C (GenBank Accession #BC143571, AA 2-372) was purchased from BPS Bioscience (Cat#50105).
The ability of test compounds to inhibit the activity of JMJD2C was determined in 384-well plate format under the following reaction conditions: 0.3 nM JMJD2C, 300 nM H3K9me3-biotin labeled peptide (Anaspec cat #64360), 2 μM alpha-ketoglutaric acid in assay buffer of 50 mM HEPES, pH7.3, 0.005% Brij35, 0.5 mM TCEP, 0.2 mg/ml BSA, 50 μM sodium L-ascorbate, and 2 μM ammonium iron(II) sulfate. Reaction product was determined quantitatively by TR-FRET after the addition of detection reagent Phycolink Streptavidin-allophycocyanin (Prozyme) and Europium-anti-di-methylated histone H3 lysine 9 (H3K9me2) antibody (PerkinElmer) in the presence of 5 mM EDTA in LANCE detection buffer (PerkinElmer) at a final concentration of 50 nM and 1 nM, respectively.
as §1, with “nM H3K9me3-biotin” for “nM H3K4me3-biotin”, “DMSO were” for “DMSO was”, “of 0.9” for “of 2.4”, “nM JMJD2C” for “nM Jarid1B”, “containing 100” for “containing 50”, “nM Europium-anti-H3K9me2” for “nM Europium-anti-H3K4me/H3K4me2”
(In general: TR-FRET usually uses a lanthanide donor and a delayed reading to cut background.)

Assay [3] deals with esophageal squamous cell carcinoma KYSE-150 cells. The assay is described as follows: Cellular IC50 in KYSE-150 cells. Format: cell-based. Particulars: Homo sapiens, one class given per A and B pair. The source says: Table 7 provides IC50 values of various compounds disclosed herein, tested in cellular human esophageal squamous cell carcinoma KYSE-150 cells: […]
The target in assay [4] is JMJD3 (Homo sapiens, UniProt O15054). The assay is described as follows: In vitro enzyme inhibition assay for JMJD3 activity (TR-FRET). Format: biochemical. The protocol: This assay determines the ability of a test compound to inhibit JMJD3 demethylase activity. Baculovirus expressed JMJD3 (GenBank Accession #NM-001080424, AA1043-end) was purchased from BPS Bioscience (Cat#50115).
The enzymatic assay of JMJD3 activity is based upon Time Resolved-Fluorescence Resonance Energy Transfer (TR-FRET) detection. The ability of test compounds to inhibit the activity of JMJD3 was determined in 384-well plate format under the following reaction conditions: 5 nM JMJD3, 250 nM H3K27me3-biotin labeled peptide (Anaspec cat #64367), 0.4 to 2 μM α-ketoglutaric acid in assay buffer of 50 mM HEPES, pH7.3, 0.005% Brij35, 0.5 mM TCEP, 0.2 mg/ml BSA, 50 μM sodium L-ascorbate, and 5 μM ammonium iron(II) sulfate. Reaction product was determined quantitatively by TR-FRET after the addition of detection reagent Phycolink Streptavidin-allophycocyanin (Prozyme) and Europium-anti-H3K27me2 antibody (PerkinElmer) in the presence of 5 mM EDTA in LANCE detection buffer (PerkinElmer) at a final concentration of 50 nM and 1 nM, respectively.
The assay reaction was initiated by the following: […] of the mixture of 750 nM H3K27me3-biotin labeled peptide and 1.2 to 6 μM alpha-ketoglutaric acid with 2 μL of 11-point serial diluted inhibitor in 3% DMSO were added to each well of plate, followed by the addition of 2 μl of 15 nM JMJD3 to initiate the reaction. The reaction mixture was incubated at RT for 30 min, and terminated by the addition of 6 μL of 5 mM EDTA in LANCE detection buffer containing 100 nM Phycolink Streptavidin-allophycocyanin and 2 nM Europium-anti-H3K27me2 antibody. Plates were read by EnVisionMultilabel Reader in TR-FRET mode (excitation at 320 nm, emission at 615 nm and 665 nm) after 1 hr incubation at RT. A ratio from the readout of 665/615 was calculated for each well and fitted to determine inhibition constant (IC50).

Where [5] appears, read: Table 4, cell gives A/B enantiomer values.
Setting [6] is: Table 5, one class given per A and B pair.

pIC50: −log10 of the molar value.

Jarid1B, sequence (Q9UGL1 whole entry, species assumed): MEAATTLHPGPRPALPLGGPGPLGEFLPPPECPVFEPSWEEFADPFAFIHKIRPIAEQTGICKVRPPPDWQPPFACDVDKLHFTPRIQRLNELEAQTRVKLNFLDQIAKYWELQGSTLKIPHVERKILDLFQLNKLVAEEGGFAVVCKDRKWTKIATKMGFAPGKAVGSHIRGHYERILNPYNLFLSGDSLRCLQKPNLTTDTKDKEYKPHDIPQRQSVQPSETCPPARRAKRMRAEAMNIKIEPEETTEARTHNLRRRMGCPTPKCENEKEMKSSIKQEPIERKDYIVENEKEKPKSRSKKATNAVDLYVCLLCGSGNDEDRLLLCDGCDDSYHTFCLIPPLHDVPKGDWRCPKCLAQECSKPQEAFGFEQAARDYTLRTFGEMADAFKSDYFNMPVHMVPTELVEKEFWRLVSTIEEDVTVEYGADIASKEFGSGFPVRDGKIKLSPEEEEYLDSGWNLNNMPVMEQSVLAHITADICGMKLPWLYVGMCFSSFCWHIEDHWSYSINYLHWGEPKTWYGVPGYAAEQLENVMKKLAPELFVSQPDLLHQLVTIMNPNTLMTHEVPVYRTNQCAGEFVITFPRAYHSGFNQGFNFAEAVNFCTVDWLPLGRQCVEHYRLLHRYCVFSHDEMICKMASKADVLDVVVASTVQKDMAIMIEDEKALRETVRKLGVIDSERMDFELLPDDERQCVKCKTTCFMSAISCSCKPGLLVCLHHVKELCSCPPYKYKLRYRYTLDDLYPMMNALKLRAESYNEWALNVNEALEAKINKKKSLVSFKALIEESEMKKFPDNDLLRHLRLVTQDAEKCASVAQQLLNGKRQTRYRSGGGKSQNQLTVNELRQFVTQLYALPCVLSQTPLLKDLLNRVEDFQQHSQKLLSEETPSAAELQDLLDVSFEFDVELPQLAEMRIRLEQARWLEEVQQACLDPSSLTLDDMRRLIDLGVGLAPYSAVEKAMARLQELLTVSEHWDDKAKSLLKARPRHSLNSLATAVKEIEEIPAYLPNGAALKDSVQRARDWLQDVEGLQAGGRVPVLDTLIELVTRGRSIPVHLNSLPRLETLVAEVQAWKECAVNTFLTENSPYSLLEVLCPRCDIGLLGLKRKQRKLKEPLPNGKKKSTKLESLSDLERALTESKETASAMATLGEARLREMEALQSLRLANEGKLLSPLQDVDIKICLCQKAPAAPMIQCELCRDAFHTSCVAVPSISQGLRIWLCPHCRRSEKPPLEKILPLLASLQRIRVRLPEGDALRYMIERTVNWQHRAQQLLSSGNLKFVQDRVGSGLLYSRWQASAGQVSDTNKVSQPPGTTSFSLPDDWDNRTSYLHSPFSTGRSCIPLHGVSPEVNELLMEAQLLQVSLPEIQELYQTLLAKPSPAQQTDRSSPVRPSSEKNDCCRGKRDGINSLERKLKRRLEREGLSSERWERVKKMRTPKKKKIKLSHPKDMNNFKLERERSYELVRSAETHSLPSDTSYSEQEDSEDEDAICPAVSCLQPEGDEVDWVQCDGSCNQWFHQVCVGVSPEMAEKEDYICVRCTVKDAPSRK
JMJD2C, sequence (Q9H3R0 2-372): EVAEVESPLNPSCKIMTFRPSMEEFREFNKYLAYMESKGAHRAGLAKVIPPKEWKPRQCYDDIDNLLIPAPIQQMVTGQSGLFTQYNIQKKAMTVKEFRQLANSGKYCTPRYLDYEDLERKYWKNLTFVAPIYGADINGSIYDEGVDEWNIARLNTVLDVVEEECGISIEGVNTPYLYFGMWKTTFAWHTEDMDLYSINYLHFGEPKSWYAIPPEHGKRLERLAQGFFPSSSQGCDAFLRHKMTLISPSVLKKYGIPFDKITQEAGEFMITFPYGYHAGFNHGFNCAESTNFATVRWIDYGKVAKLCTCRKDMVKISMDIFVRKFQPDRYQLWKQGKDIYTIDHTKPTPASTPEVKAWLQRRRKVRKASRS

A word on the pIC50: it is the negative decadic logarithm of the IC50, by convention in mol/L. High values mean a small IC50, low ones a large IC50. For the compound `Cc1ccc(N(C)c2ccc3c(c2)CCN[C@H]3CNc2cnccc2C(=O)O)cc1` [Example 1B, 3-[({(1R)-6-[methyl(4-methylphenyl)amino]-1,2,3,4-tetrahydroisoquinolyl}methyl)amino]pyridine-4-carboxylic acid], the pIC50 in assay [1] (setting [5]) is no less than 7.00; in assay [1] (setting [6]), no less than 7.00; in assay [2] (setting [5]), 6.00 to 7.00; in assay [2] (setting [6]) it was 6.00 to 7.00; in assay [3], 5.00 to 6.00.
In the case of `CC(C)c1ccc(N(C)c2ccc3c(c2)CCN[C@H]3CNc2cnccc2C(=O)O)cc1` [Example 3B, 3-{[((1R)-6-{methyl[4-isopropylphenyl]amino}-1,2,3,4-tetrahydroisoquinolyl)methyl]amino}pyridine-4-carboxylic acid], the pIC50 in assay [4] (setting [5]) is 6.00 to 7.00; in assay [4] (setting [6]), 6.00 to 7.00; in assay [1] (setting [5]), no less than 7.00; in assay [1] (setting [6]), no less than 7.00; in assay [2] (setting [5]), 6.00 to 7.00; in assay [2] (setting [6]), 6.00 to 7.00. In assay [3], this compound showed a pIC50 of no less than 7.00.
As to `Cc1ccc(N(C)c2ccc3c(c2)CN[C@@H]3CNc2cnccc2C(=O)O)cc1` [Example 5A, 3-[({(1S)-5-[methyl(4-tolyl)amino]isoindolinyl}methyl)amino]pyridine-4-carboxylic acid], the negative-log IC50 (pIC50) in assay [1] (setting [5]) was no less than 7.00; in assay [1] (setting [6]), no less than 7.00; in assay [3], 5.00 to 6.00.
Consider `Cc1ccc(N(C)c2ccc3c(c2)CN[C@H]3CNc2cnccc2C(=O)O)cc1` [Example 5B, 3-[({(1R)-5-[methyl(4-tolyl)amino]isoindolinyl}methyl)amino] pyridine-4-carboxylic acid], for which the pIC50 in assay [1] (setting [5]) was no less than 7.00; in assay [1] (setting [6]), no less than 7.00; in assay [3] it was 5.00 to 6.00.
Turning to `CCc1ccccc1-c1ccc2c(c1)CCN(C)[C@H]2CNc1cnccc1C(=O)O` [Example 15A, (R)-3-(((6-(2-ethylphenyl)-2-methyl-1,2,3,4-tetrahydroisoquinolin-1-yl)methyl)amino)isonicotinic acid], the pIC50 in assay [4] (setting [6]) is 5.00 to 6.00; in assay [1] (setting [6]), no less than 7.00; in assay [2] (setting [6]) it was 6.00 to 7.00.
For `CCc1ccccc1-c1ccc2c(c1)CCN(C)[C@@H]2CNc1cnccc1C(=O)O` [Example 15B, (S)-3-(((6-(2-ethylphenyl)-2-methyl-1,2,3,4-tetrahydroisoquinolin-1-yl)methyl)amino)isonicotinic acid] the same measures were 5.00 to 6.00, no less than 7.00 and 6.00 to 7.00.
In the case of `CC(C)c1ccccc1-c1ccc2c(c1)CCN(C)[C@H]2CNc1cnccc1C(=O)O` [Example 16A, (R)-3-(((6-(2-isopropylphenyl)-2-methyl-1,2,3,4-tetrahydroisoquinolin-1-yl)methyl)amino)isonicotinic acid], the results for the pIC50 in assay [1] (setting [6]) and in assay [2] (setting [6]) were no less than 7.00 and 5.00 to 6.00, respectively.
As to `CC(C)c1ccccc1-c1ccc2c(c1)CCN(C)[C@@H]2CNc1cnccc1C(=O)O` [Example 16B, (S)-3-(((6-(2-isopropylphenyl)-2-methyl-1,2,3,4-tetrahydroisoquinolin-1-yl)methyl)amino)isonicotinic acid], the figures for the pIC50 in assay [1] (setting [6]) and in assay [2] (setting [6]) were no less than 7.00 and 5.00 to 6.00, respectively.
Regarding `Cc1cccc(C)c1-c1ccc2c(c1)CCN(C)[C@H]2CNc1cnccc1C(=O)O` [Example 17A, (R)-3-(((6-(2,6-dimethylphenyl)-2-methyl-1,2,3,4-tetrahydroisoquinolin-1-yl)methyl)amino)isonicotinic acid], the pIC50 in assay [1] (setting [6]) was no less than 7.00; in assay [2] (setting [6]), 5.00 to 6.00.
Regarding `Cc1cccc(C)c1-c1ccc2c(c1)CCN(C)[C@@H]2CNc1cnccc1C(=O)O` [Example 17B, (S)-3-(((6-(2,6-dimethylphenyl)-2-methyl-1,2,3,4-tetrahydroisoquinolin-1-yl)methyl)amino)isonicotinic acid], the pIC50 is no less than 7.00 in assay [1] (setting [6]) and 5.00 to 6.00 in assay [2] (setting [6]).

Values taken from patent publication US10059687B2, “Histone demethylase inhibitors” (CELGENE QUANTICEL RESEARCH, INC., priority 2015, dated 2018).
